The values below come from PMC9760430, “A stapled chromogranin A-derived peptide homes in on tumors that express αvβ6 or αvβ8 integrins” (International Journal of Biological Sciences, 2023).

Experiment [1] has as its target T1, Human αvβ6 (Homo sapiens, UniProt P06756+P18564).
T1 construct: purchased Bio-Techne
Put plainly: direct integrin binding assay of peptide-IRDye conjugates, human αvβ6-coated plates. Conditions: plates coated with recombinant human αvβ6; conjugate 0.01-100 nM, 1 h; bound NIR fluorescence (Odyssey CLx); mean ± SE, n = 2 experiments. The method, then:
(§1) The affinity of peptide-IRDye conjugates for αvβ6 and αvβ8 integrins was determined by a direct binding assay using microtiter plates coated with αvβ6 or αvβ8 (Bio-Techne). After 1 h of incubation, the plates were washed; bound fluorescence was quantified by scanning the plates with an Odyssey CLx near-infrared fluorescence imaging system (LI-COR). […]
(§2) The simplified molecular-input line-entry system (SMILES) of 5a-, 2a-, Cys- and 5a-Scr- […]
(§3) The concentration of each conjugate was quantified by spectrophotometric analysis at 774 nm (molar absorption coefficient, 240,000 M-1, cm-1) (Figure S3B). The final yield of 5a-IRDye […]
(§4) Binding of peptide-IRDye conjugates to avb6 and avb8 integrin
(§5) The binding affinity of peptide-IRDye conjugates for human and murine avb6 and avb8 integrins was determined as follows: 96-well clear-bottom black microtiter plates (Corning® cat. 3601) were coated with 2 μg/ml avb6 or avb8 (50 µl/well), in Dulbecco’s phosphate-buffered saline containing Ca2+ and Mg2+ (DPBS) and left to incubate overnight at 4°C. […]
(§6) conjugates were added to the microtiterplates and incubated at room temperature for 1 h (see Experimental Section). After washing, bound fluorescence was measured using an Odyssey CLx (LI-COR) scanner. Representative images of the scanned plates and quantification of binding are shown. […]

Experiment [2] addresses T2, Human αvβ8 (Homo sapiens, UniProt P06756+P26012).
T2 construct: purchased Bio-Techne
Description: direct integrin binding assay of peptide-IRDye conjugates, human αvβ8-coated plates. The following applies: plates coated with recombinant human αvβ8; conjugate 0.01-100 nM, 1 h; bound NIR fluorescence; mean ± SE, n = 2 experiments. Here is the method:
as §1, §2, §3, §4, §5, §6

Experiment [3] relates to 5M7101 pancreatic adenocarcinoma cells (αvβ6+ and αvβ8-). Description: binding of peptide-IRDye conjugates to cultured 5M7101 cells. Conditions: 0.32-200 nM, 1 h, 37 °C; bound NIR fluorescence. Type of experiment: cell-based, murine. Here is the method: To assess the binding of peptide-IRDye conjugates to cells various amounts of conjugates (range 0.32-200 nM) were added to cultured cells and left to incubate for 1 h at 37 °C. After three washings, the cells were fixed and analyzed by scanning the plate with the Odyssey CLx.
A control conjugate with a cysteine in place of the peptide was also prepared in parallel. The identity of the purified products, called 5a-IRDye, 2a-IRDye, and Cys-IRDye, was confirmed by mass spectrometry analysis (Table S1). In addition, the purity and identity of 5a-IRDye was monitored by liquid chromatography–mass spectrometry (LC-MS). […]
that the product consist of a single peak at 230 and 735 nm with the expected molecular weight (purity >95%) (Figure S3A).
as §2
The concentration of each conjugate was quantified by spectrophotometric analysis at 774 nm (molar absorption coefficient, 240,000 M-1, cm-1) (Figure S3B). […]
The binding of peptide-IRDye conjugates to BxPC-3, 5M7101, and HUVECs cells was analyzed as follows. […]
chloride and 1% BSA (binding buffer) for 5 min. […] Binding of conjugates to cells was quantified by scanning the plate (filled with PBS, 100 µl/well) with the Odyssey CLx (LI-COR) using the above settings, except that the scan focus offset and scan intensity were set to 4 and 8.5, respectively. […]

Peptide text beside a SMILES is read from it. * marks the point of attachment. X1 = CC1(C)C(/C=C/C2=C(Oc3ccc(S(=O)(=O)O)cc3)C(=C\C=C3/N(CCCCCC(=O)NCCN4C(=O)CC(*)C4=O)c4ccc(S(=O)(=O)O)cc4C3(C)C)/CCC2)=[N+](CCCCS(=O)(=O)O)c2ccc(S(=O)(=O)[O-])cc21

T1 sequence (P06756 31-992 limits assumed): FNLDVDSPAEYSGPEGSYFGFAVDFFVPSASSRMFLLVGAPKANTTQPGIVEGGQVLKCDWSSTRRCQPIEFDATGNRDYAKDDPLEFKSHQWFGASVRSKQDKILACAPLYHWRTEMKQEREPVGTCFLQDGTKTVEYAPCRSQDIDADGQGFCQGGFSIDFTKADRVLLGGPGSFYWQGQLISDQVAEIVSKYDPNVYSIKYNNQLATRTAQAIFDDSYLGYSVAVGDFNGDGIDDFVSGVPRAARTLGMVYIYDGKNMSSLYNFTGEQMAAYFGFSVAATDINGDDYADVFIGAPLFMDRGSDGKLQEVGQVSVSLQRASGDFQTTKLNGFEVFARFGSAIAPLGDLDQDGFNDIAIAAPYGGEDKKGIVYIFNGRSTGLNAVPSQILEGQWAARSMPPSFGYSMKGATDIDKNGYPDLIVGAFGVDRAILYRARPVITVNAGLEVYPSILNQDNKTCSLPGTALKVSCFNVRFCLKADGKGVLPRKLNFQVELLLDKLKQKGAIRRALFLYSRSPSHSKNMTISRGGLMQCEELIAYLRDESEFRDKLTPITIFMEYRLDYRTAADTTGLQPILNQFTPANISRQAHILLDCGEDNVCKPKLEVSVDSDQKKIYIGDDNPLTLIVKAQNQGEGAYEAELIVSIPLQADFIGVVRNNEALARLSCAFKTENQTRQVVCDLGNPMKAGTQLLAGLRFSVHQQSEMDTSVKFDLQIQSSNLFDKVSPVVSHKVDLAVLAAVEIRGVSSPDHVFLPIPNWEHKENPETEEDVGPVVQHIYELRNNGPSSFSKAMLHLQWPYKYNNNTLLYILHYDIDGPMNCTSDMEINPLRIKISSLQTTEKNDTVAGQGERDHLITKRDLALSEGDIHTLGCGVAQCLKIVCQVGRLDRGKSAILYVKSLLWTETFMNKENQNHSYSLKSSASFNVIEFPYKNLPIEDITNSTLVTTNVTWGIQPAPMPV
T1 sequence (P18564 22-707 limits assumed): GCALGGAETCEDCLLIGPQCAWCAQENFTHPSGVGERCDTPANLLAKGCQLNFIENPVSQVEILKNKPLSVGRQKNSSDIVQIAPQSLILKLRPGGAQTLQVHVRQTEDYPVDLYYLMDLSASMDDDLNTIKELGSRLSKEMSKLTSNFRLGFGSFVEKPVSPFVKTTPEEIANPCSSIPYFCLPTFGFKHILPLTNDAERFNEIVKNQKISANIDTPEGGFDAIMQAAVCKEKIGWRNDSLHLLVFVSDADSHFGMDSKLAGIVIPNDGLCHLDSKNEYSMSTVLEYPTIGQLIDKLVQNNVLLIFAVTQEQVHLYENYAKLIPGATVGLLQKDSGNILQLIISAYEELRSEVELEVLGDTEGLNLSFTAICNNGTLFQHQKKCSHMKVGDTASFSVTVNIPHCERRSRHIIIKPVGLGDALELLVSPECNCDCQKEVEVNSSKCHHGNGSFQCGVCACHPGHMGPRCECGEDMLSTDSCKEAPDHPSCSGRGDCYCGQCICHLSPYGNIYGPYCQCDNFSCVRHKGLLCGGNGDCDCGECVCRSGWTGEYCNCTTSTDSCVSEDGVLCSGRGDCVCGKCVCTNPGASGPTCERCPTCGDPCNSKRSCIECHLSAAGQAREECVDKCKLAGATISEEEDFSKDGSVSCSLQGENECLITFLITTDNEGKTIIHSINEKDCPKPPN
T2 sequence (P06756 31-992 limits assumed): as the sequence (P06756 31-992 limits assumed) above
T2 sequence (P26012 43-684 limits assumed): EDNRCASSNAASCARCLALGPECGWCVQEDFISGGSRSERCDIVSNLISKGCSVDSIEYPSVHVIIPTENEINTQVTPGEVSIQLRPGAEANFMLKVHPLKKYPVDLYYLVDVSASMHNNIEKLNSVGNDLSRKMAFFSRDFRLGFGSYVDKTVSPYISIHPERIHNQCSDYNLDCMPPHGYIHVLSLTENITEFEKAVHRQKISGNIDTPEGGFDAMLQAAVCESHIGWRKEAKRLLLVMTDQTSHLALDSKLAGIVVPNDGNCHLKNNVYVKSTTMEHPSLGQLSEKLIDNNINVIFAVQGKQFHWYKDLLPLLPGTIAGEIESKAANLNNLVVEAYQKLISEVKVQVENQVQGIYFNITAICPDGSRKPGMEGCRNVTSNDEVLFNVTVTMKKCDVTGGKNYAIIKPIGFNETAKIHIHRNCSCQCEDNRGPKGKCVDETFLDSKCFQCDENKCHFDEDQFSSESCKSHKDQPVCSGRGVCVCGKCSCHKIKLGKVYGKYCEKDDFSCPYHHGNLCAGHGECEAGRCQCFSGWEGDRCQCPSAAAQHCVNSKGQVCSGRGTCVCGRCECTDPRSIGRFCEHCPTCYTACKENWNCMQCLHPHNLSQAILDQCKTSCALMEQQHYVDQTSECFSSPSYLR

Regarding `CC1(C)C(/C=C/C2=C(Oc3ccc(S(=O)(=O)O)cc3)C(=C\C=C3/N(CCCCCC(=O)NCCN4C(=O)CC(SC[C@H](N)C(=O)O)C4=O)c4ccc(S(=O)(=O)O)cc4C3(C)C)/CCC2)=[N+](CCCCS(=O)(=O)O)c2ccc(S(=O)(=O)[O-])cc21` (some centres unmarked) [Cys-IRDye], the EC50 in experiment [1] and in experiment [2] was greater than 100 nM throughout. In experiment [3], the “binding of conjugate to 5M7101 cells” value is “little or no binding”.
For the molecule `CC[C@H](C)[C@H](NC(=O)[C@H](CCCNC(=N)N)NC(=O)[C@H](CCC(=O)O)NC(=O)[C@H](CCC(=O)O)NC(=O)CNC(=O)[C@H](CCCNC(=N)N)NC(=O)[C@H](CC(C)C)NC(=O)[C@@H](NC(=O)[C@H](CCC(=O)O)NC(=O)[C@H](Cc1ccccc1)NC(=O)[C@@H](N)CSC1CC(=O)N(CCNC(=O)CCCCCN2/C(=C\C=C3\CCCC(/C=C/C4=[N+](CCCCS(=O)(=O)O)c5ccc(S(=O)(=O)[O-])cc5C4(C)C)=C3Oc3ccc(S(=O)(=O)O)cc3)C(C)(C)c3cc(S(=O)(=O)O)ccc32)C1=O)[C@@H](C)O)C(=O)N[C@@H](CC(C)C)C(=O)N[C@@H](CO)C(=O)N[C@H](C(=O)N[C@@H](CC(C)C)C(=O)N[C@@H](CCCNC(=N)N)C(=O)N[C@@H](Cc1c[nH]cn1)C(=O)N[C@@H](CCC(N)=O)C(=O)N[C@@H](CC(N)=O)C(=O)N[C@@H](CC(C)C)C(=O)N[C@@H](CC(C)C)C(=O)N[C@@H](CCCCN)C(=O)N[C@@H](CCC(=O)O)C(=O)N[C@@H](CC(C)C)C(=O)N[C@@H](CCC(N)=O)C(=O)N[C@@H](CC(=O)O)C(N)=O)[C@@H](C)CC` (some centres unmarked) [2a-IRDye] (H-C(X1)FETLRGEERILSILRHQNLLKELQD-NH2), the EC50 in experiment [1] and in experiment [2] was greater than 100 nM in each case.
